Tests used:
[1] = target: T1, human FGFR3 wild type enzyme (cytoplasmic domain) (Homo sapiens, UniProt P22607); test: FGFR3 wild type mobility shift assay (enzymatic assay); type: biochemical; details: 75 μM ATP, 50 minutes at 30° C., Caliper EZ reader II
T1 construct: human FGFR3 wild type enzyme (cytoplasmic domain, from Carna Biosciences); purchased Carna Biosciences
Procedure, shortened: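 Cytoplasmic domain of human wild-type FGFR3 (0.04 ng/μL) with 75 μM ATP and 1 μM FL-peptide 30, pH 7.4 HEPES/MgCl2 buffer, 1% DMSO, 50 min at 30 °C, EDTA-stopped. Substrate-product conversion read by mobility shift. IC50, pIC50 and Hill slope from 10-point 4-fold dilutions starting at 10 μM.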

[2] = target: T2, human FGFR3 V555M enzyme (cytoplasmic domain carrying V555M mutation) (Homo sapiens, UniProt P22607, V555M); test: FGFR3 V555M mobility shift assay (enzymatic assay); type: biochemical; details: 30 μM ATP, 45 minutes at 30° C., Caliper EZ reader II
T2 construct: human FGFR3 V555M enzyme (cytoplasmic domain carrying V555M mutation, from Carna Biosciences); purchased Carna Biosciences
Procedure, shortened: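 Cytoplasmic-domain FGFR3 V555M (0.04 ng/μL) with 30 μM ATP and 1 μM FL-peptide 30 in HEPES pH 7.4/MgCl2/Brij35/DTT, 1% DMSO, 45 min at 30 °C, EDTA-stopped. Mobility-shift read of substrate-product conversion; 10-point 4× dilution from 10 μM fitted for IC50/pIC50.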

[3] = target: T3, human FGFR3 V555L enzyme (cytoplasmic domain carrying V555L mutation) (Homo sapiens, UniProt P22607, V555L); test: FGFR3 V555L mobility shift assay (enzymatic assay); type: biochemical; details: 40 μM ATP, 50 minutes at 30° C., Caliper EZ reader II
T3 construct: human FGFR3 V555L enzyme (cytoplasmic domain carrying V555L mutation, from Carna Biosciences); purchased Carna Biosciences
Protocol: FGFR3 V555L Mobility Shift Assay (Enzymatic Assay)
In a final reaction volume of 25 μL, 0.04 ng/μL human FGFR3 V555L enzyme (cytoplasmic domain carrying V555L mutation, from Carna Biosciences) was incubated with 40 μM ATP, 1 μM FL-peptide 30 substrate and 250 nL of testing compound (1% DMSO final) in assay buffer (100 mM HEPES pH 7.4, 10 mM MgCl2, 0.003% Brij35, 1 mM DTT). After incubation for 50 minutes at 30° C. the reaction was stopped with 10 μL of 0.5M EDTA pH 8.0, and then 25 μL of reaction mixture was transferred to reading plate and measured on Caliper EZ reader II. The substrate-product conversion rate was used as raw data for normalization and concentration-response curve (10 dose points with 4× serial dilution, starting with 10 μM) was plotted using Prism to calculate IC50 (M), pIC50 (−log IC50) and HillSlope value.

[4] = test system: NIH/3T3 cells transfected with the same control vector; test: NIH/3T3 mock cell proliferation assay (counter assay, general toxicity); type: cell-based; details: Mus musculus, NIH3T3, 72 h, 72-hr incubation, CellTiter Glo, starting with 30 μM; counter assay for general toxicity; read-out: NIH/3T3 MOCK CTG (IC50)
Procedure, shortened: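 Control-vector NIH/3T3 cells, 30,000/well in DMEM with 10% FBS, exposed 72 h at 37 °C to compound (9 points, 3-fold from 30 μM, 0.3% DMSO). CellTiter-Glo luminescence normalized to survival %; IC50, pIC50 and Hill slope from concentration-response fit.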

[5] = target: T4, NIH/3T3 cells overexpressing FGFR3 WT-TACC3 fusion protein (Homo sapiens, UniProt P22607); test: NIH/3T3 FGFR3 WT-TACC3 cell proliferation assay; type: cell-based; details: 72-hr incubation, CellTiter Glo, starting with 10 μM; read-out: NIH/3T3 FGFR3 WT-TACC3 CTG (IC50)
T4 construct: NIH/3T3 FGFR3 WT-TACC3 CTG (IC50); other: 72-hr incubation, CellTiter Glo, starting with 10 μM; fused on or other part: Q9Y6A5 (Transforming acidic coiled-coil-containing protein 3)
Procedure, shortened: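 Cells seeded overnight, then exposed 72 h at 37 °C to compound in 9-point 4-fold dilutions from 10 μM (0.1% DMSO final). Viability read by CellTiter-Glo luminescence, normalized to survival %; IC50, pIC50 and Hill slope from concentration-response fit.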

[6] = target: T5, NIH/3T3 cells overexpressing FGFR3 V555M-TACC3 fusion protein (Homo sapiens, UniProt P22607, V555M, cells depend on it); test: NIH/3T3 FGFR3 V555M-TACC3 cell proliferation assay; type: cell-based; details: 72-hr incubation, CellTiter Glo, starting with 10 μM; read-out: NIH/3T3 FGFR3 V555M-TACC3 CTG (IC50)
T5 construct: NIH/3T3 FGFR3 V555M-TACC3 CTG (IC50); other: 72-hr incubation, CellTiter Glo, starting with 10 μM; fused on or other part: Q9Y6A5 (Transforming acidic coiled-coil-containing protein 3)
Procedure, shortened: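 NIH/3T3 cells overexpressing FGFR3 V555M-TACC3 fusion, 30,000/well in DMEM/10% FBS, treated for 72 h at 37 °C with 9 doses (4× dilutions from 10 μM top, 0.1% DMSO). CellTiter-Glo luminescence normalised to % survival; IC50, pIC50 and Hill slope from concentration-response fits.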

T3 sequence (P22607 397-806 V555L limits assumed): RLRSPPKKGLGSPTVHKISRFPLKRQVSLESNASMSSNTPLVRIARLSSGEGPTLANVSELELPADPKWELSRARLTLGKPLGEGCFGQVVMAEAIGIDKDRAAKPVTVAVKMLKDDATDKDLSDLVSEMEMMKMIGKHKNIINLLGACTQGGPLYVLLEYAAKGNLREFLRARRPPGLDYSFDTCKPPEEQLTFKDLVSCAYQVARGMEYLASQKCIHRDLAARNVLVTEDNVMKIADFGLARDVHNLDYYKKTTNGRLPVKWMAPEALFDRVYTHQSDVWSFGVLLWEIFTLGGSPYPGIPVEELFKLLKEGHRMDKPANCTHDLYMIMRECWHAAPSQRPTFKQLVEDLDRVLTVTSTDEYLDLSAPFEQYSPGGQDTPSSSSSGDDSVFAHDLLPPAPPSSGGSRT
T5 sequence (P22607 whole entry V555M, the tested form may be a part): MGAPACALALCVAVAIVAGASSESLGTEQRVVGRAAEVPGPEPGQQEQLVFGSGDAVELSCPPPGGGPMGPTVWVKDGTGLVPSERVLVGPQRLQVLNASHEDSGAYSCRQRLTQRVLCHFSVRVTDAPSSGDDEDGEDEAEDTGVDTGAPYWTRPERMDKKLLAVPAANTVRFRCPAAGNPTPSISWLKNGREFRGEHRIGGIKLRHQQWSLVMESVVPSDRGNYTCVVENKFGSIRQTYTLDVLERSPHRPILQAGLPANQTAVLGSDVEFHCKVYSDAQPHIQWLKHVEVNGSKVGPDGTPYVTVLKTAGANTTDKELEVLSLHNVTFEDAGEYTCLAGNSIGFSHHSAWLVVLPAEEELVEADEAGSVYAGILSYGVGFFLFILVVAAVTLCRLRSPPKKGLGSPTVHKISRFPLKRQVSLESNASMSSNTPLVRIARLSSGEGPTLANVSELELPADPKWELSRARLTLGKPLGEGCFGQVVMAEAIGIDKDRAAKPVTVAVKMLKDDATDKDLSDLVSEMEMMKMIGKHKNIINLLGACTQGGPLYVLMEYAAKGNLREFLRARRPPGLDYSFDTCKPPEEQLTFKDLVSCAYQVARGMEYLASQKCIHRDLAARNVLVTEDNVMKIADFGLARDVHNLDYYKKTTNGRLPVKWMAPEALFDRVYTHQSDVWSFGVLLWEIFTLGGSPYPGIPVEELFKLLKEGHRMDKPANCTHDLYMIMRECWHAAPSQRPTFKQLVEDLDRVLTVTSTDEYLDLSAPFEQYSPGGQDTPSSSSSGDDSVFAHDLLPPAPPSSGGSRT
T2 sequence (P22607 397-806 V555M limits assumed): as the sequence (P22607 397-806 V555L limits assumed) above, with L159M counted along it
T4 sequence (P22607 whole entry, change not shown, the tested form may be a part): as the sequence (P22607 whole entry V555M, the tested form may be a part) above, with M555V counted along it
T1 sequence (P22607 397-806 limits assumed): as the sequence (P22607 397-806 V555L limits assumed) above, with L159V counted along it

Compound | IC50 [1] [nM] | IC50 [2] [nM] | IC50 [3] [nM] | GI50 [5] [nM] | GI50 [6] [nM] | IC50 [4] [nM]
CC(C)C(Nc1c(-c2nc3ccc(N4CCOCC4)cc3[nH]2)c(=O)[nH]c2ccccc12)c1ncccn1 (single isomer, unassigned) [Compound 32a, (S*)-4-((2-methyl-1-(pyrimidin-2-yl)propyl)amino)-3-(6-morpholino-1H-benzo[d]imidazol-2-yl)quinolin-2(1H)-one] | 0.368 | 0.171 | 0.364 | 16.5 | 5.75 | 2610
C[C@H](Nc1c(-c2nc3ccc(N4CCN(C)CC4)cc3[nH]2)c(=O)[nH]c2ccccc12)c1ccccn1 [Compound 65, (S)-3-(6-(4-methylpiperazin-1-yl)-1H-benzo[d]imidazol-2-yl)-4-((1-(pyridin-2-yl)-ethyl)amino)quinolin-2(1H)-one] | 0.377 | 0.193 | 0.246 | 5.93 | 8.19 | 165
C[C@H](Nc1c(-c2nc3ccc(N4CCOCC4)cc3[nH]2)c(=O)[nH]c2ccccc12)c1ccccn1 [Compound 55, (S)-3-(6-Morpholino-1H-benzo[d]imidazol-2-yl)-4-((1-(pyridin-2-yl)ethyl)amino)-quinolin-2(1H)-one] | 1.76 | 0.538 | 1.25 |  | 34.3 | 460

Now from value to compound, other results behind:

IC50 [1] [nM] | IC50 [2] [nM] | IC50 [3] [nM] | GI50 [5] [nM] | GI50 [6] [nM] | Compound | IC50 [4] [nM]
0.281 | 0.177 | 0.617 | 7.19 | 5.34 | CCC(Nc1c(-c2nc3ccc(N4CCOCC4)cc3[nH]2)c(=O)[nH]c2ccccc12)c1ncccn1 (single isomer, unassigned) [Compound 30a, (S*)-3-(6-morpholino-1H-benzo[d]imidazol-2-yl)-4-((1-(pyrimidin-2-yl)propyl)amino)quinolin-2(1H)-one] | 2910
0.595 | 0.237 | 0.63 | 9.24 | 6.41 | O=c1[nH]c2ccccc2c(NC(c2ncccn2)C2CC2)c1-c1nc2ccc(N3CCOCC3)cc2[nH]1 (single isomer, unassigned) [Compound 33a, (S*)-4-((cyclopropyl(pyrimidin-2-yl)methyl)amino)-3-(6-morpholino-1H-benzo[d]imidazol-2-yl)quinolin-2(1H)-one] | 1080
0.128 | 0.0676 | 0.135 |  | 10.7 | CC(C)N1CCN(c2ccc3nc(-c4c(N[C@@H](C)c5ccccn5)c5ccccc5[nH]c4=O)[nH]c3c2)CC1 [Compound 56, (S)-3-(6-(4-isopropylpiperazin-1-yl)-1H-benzo[d]imidazol-2-yl)-4-((1-(pyridin-2-yl)-ethyl)amino)quinolin-2(1H)-one] | 770

Reference: US11384075B2, “Quinolinone compounds” (Janssen Pharmaceutica NV, priority 2017, dated 2022)
